Results on one compound are retold here after PMC3280264 (PLoS ONE, 2012).

Marks after values point to notes of the source that are not given here.

For experiment [1], the system named is db/db mice. Nature of the experiment: Single-dose blood glucose lowering in db/db mice. It counts as in vivo, mouse. The conditions noted are these: for reduction of BG levels compared with vehicle-treated mice: 1 hour after treatment; for BG level: 6 hours, vehicle 479±3.9. From the text: (§1) Four rodent models were used in these experiments: (1) male C57BL/6J mice fed with a high-fat diet (D-12492 with 60 kcal% fat, Research Diets, Inc, New Jersey, USA) (diet-induced obese, insulin resistantmice [DIO]); (2) male C57BL/ksj-db/db hyperglycemic mice; (3) male Zucker fatty (ZF) obese, insulin resistant rats; and (4) male ZDF obese, hyperglycemic rats. All animals were housed according to standard procedures following a protocol approved by the IACUC in Drug Discovery at Johnson & Johnson Pharmaceutical Research & Development, LLC.
BG levels were monitored at 0, 0.5, 1, 3, 6, and 24 hours after dosing. […] BG levels were monitored weekly, and HbA1c, plasma glucose, and insulin levels were determined at the end of the 4-week treatment. An oral glucose tolerance test (OGTT) ([…] of body weight, given by gavage) was conducted in ZDF rats after 4 weeks of treatment. Blood was sampled at 0, 30, 60, and 120 minutes after glucose challenge from the tail vein for measurement of BG levels using a glucometer (One Touch Ultra, LifeScan, Milpitas, California, USA) and plasma insulin using ELISA method (ALPCO, Salem, New Hampshire, USA).

Experiment [2] concerns ZDF rats. Nature of the experiment: Graded glucose infusion, renal threshold for glucose excretion in ZDF rats. The format is in vivo, rat. The note with it: 1 mg/kg.
Source text: as §1
Two separate graded glucose infusion (GGI) studies were performed to characterize renal glucose handling in both untreated and treated ZDF rats. […] The RTG was determined as described below.
The relationship between UGE and BG is commonly described as a threshold relationship in which there is little UGE when BG<RTG and UGE increases with filtered glucose load when BG>RTG, where the filtered glucose load is equal to the BG concentration multiplied by the glomerular filtration rate (GFR). […] (1) Values of RTG were determined using nonlinear regression (nlinfit in Matlab version 7.10) with Equation 1 and the measured BG and UGE values.

The test system of experiment [3] is DIO mice. The experiment can be described thus: 4-week treatment of DIO mice (body weight, UGE, calorimetry). It counts as in vivo. The note with it: DIO mouse, 30 mg/kg, 4 weeks.
Source text: as §1
Body weight, food intake, and BG levels were monitored weekly. UGE and indirect calorimetry were conducted in the fourth week of treatment during the compound treatment. […] Body weight, food intake, and BG were measured weekly during the 19-day treatment period. UGE, body fat, and indirect calorimetric studies were conducted at the end of this study.

Experiment [4] concerns the target T1, Mouse SGLT1 (Mus musculus, UniProt Q8C3K6).
T1 construct: expressed in transfected cells; host or cells: CHO-K (CHOK) cells
T1 sequence (Q8C3K6 1-665): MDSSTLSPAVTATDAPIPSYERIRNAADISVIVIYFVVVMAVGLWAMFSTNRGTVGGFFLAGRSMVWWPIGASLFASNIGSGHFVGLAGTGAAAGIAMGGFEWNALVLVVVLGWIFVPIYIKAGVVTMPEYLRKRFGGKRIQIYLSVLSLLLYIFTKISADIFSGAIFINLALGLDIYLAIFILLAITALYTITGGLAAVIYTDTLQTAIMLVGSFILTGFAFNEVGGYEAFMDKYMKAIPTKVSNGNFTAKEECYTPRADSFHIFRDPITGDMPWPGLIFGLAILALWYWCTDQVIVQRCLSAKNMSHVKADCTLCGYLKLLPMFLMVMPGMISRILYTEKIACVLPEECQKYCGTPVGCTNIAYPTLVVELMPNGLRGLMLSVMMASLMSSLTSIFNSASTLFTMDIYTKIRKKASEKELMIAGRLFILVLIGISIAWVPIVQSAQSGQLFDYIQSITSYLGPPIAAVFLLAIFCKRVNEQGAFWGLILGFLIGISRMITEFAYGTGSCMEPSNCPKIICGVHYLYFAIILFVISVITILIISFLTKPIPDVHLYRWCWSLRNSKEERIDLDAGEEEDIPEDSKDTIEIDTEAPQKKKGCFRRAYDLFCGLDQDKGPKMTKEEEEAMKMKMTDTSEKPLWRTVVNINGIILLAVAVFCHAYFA
Nature of the experiment: 14C-AMG uptake in CHOK cells expressing mouse SGLT1. It counts as cell-based. The note with it: CHO-mSGLT1 cells, mean of 2 experiments. The method, then: Cells were seeded into 96-well plates.
All data are presented as mean ± standard error.

As usually defined, the IC50 is the concentration that gives 50% inhibition. The low end stands for greater potency, the high end for weaker potency. As for `Cc1ccc([C@@H]2O[C@H](CO)[C@@H](O)[C@H](O)[C@H]2O)cc1Cc1ccc(-c2ccc(F)cc2)s1` [canagliflozin, Canagliflozin], the “reduction of BG levels compared with vehicle-treated mice” value came out at 22% in experiment [1] (single dose 1 mg/kg) and 36% in experiment [1] (single dose 10 mg/kg). The BG level in experiment [1] (single dose 1 mg/kg) worked out at 208 ± 9.6 mg/dL; in experiment [1] (single dose 10 mg/kg), 118 ± 9.0 mg/dL. Further, the “BG at which negligible UGE occurred” value in experiment [2] (insulin + GGI study) was less than 90 mg/dL. In addition, the “renal threshold for glucose excretion (RTG)” value in experiment [2] (untreated 415±12 mg/dl) was 94 ± 10 mg/dL. Also, the RER in experiment [3] (vehicle 0.79±0.01) is reported as 0.77±0.01 ^b. In experiment [3] (vehicle 2.4±0.6), the UGE was 26.1±5.2 ^b mg/4 h. Moreover, in experiment [3] (vehicle 53.2±0.6), the Body weight was 49.6±1.0 ^b g. The “Fed BG” value in experiment [3] (vehicle 199±16) was 105±13 ^b mg/dl. In addition, the “Oxygen consumption (VO2)” value in experiment [3] (vehicle 2364±29) came to 2419 ± 109 mL/kg/h. For the same compound, in experiment [4], the IC50 is greater than 1000 nM.
